Measured values: patent US11180504B2 (ORCHID PHARMA LTD., priority 2016, dated 2021)
Converted amounts (≈) assume the structure as drawn.

Key:
[1] = test system: carbapenem sensitive Pseudomonas aeruginosa; assay: MIC by broth micro-dilution (CLSI), carbapenem sensitive P. aeruginosa; format: cell-based; details: Pseudomonas aeruginosa, ATCC27853, Meropenem susceptible P. aeruginosa ATCC27853; read-out: MIC
[2] = test system: methicillin-sensitive Staphylococcus aureus; assay: MIC by broth micro-dilution (CLSI), methicillin-sensitive S. aureus; format: cell-based; details: Staphylococcus aureus, ATCC 29213 / MSSA, MSSA S. aureus ATCC29213; read-out: MIC
[3] = test system: carbapenem sensitive Escherichia coli; assay: MIC by broth micro-dilution (CLSI), carbapenem sensitive E. coli; format: cell-based; details: Escherichia coli, ATCC25922, ESBL −ve E. coli ATCC25922; read-out: MIC
[4] = test system: carbapenemase producing K. pneumoniae; assay: MIC by broth micro-dilution (CLSI), carbapenemase producing K. pneumoniae; format: cell-based, Klebsiella pneumoniae; details: Klebsiella pneumoniae, ATCCBAA1705, KPC-2 K. pneumoniae ATCC BAA-1705; read-out: MIC
[5] = test system: extended spectrum β lactamase (ESBL) SHV18 producing Klebsiella pneumoniae; assay: MIC by broth micro-dilution (CLSI), ESBL SHV18 producing K. pneumoniae; format: cell-based; details: Klebsiella pneumoniae, ATCC700603, 22 h, ESBL +ve (SHV-18) K. pneumoniae ATCC700603; read-out: MIC

MIC [1] | MIC [2] | MIC [3] | MIC [4] | MIC [5] | Compound
> 128 µg/mL | 4 µg/mL (≈ 7.01 µM) | 1 µg/mL (≈ 1.75 µM) | 8 µg/mL (≈ 14 µM) | 8 µg/mL (≈ 14 µM) | COc1coc(CNC(=O)[C@@H]2C[C@H](SC3=C(C(=O)O)N4C(=O)[C@H]([C@@H](C)NC(=O)C(F)F)[C@H]4[C@H]3C)CN2)cc1=O [Example 137]
> 128 µg/mL | 32 µg/mL (≈ 65.4 µM) | 4 µg/mL (≈ 8.17 µM) | 64 µg/mL (≈ 131 µM) | 32 µg/mL (≈ 65.4 µM) | C[C@@H](NC(=O)C(F)(F)CN)[C@H]1C(=O)N2C(C(=O)O)=C(S[C@@H]3CN[C@H](C(=O)N(C)C)C3)[C@H](C)[C@H]12 [Example 138]
32 µg/mL (≈ 66.4 µM) | 32 µg/mL (≈ 66.4 µM) | 1 µg/mL (≈ 2.08 µM) | 4 µg/mL (≈ 8.31 µM) | 4 µg/mL (≈ 8.31 µM) | CCCNCC(=O)N[C@H](C)[C@H]1C(=O)N2C(C(=O)O)=C(S[C@@H]3CN[C@H](C(=O)N(C)C)C3)[C@H](C)C12 (some centres unmarked) [Example 139]
32 µg/mL (≈ 61.5 µM) | 2 µg/mL (≈ 3.84 µM) | 0.5 µg/mL (≈ 0.961 µM) | 2 µg/mL (≈ 3.84 µM) | 1 µg/mL (≈ 1.92 µM) | C[C@H]1C(S[C@@H]2CN[C@H](C(=O)N(CCO)CCO)C2)=C(C(=O)O)N2C(=O)[C@H]([C@@H](C)NC(=O)C(F)F)C12 (some centres unmarked) [Example 140]
64 µg/mL (≈ 115 µM) | 4 to 8 µg/mL (≈ 7.16 to 14.3 µM) | 1 µg/mL (≈ 1.79 µM) | 4 to 8 µg/mL (≈ 7.16 to 14.3 µM) | 4 to 8 µg/mL (≈ 7.16 to 14.3 µM) | CNC(=O)[C@@H]1C[C@H](N)CN1C(=O)[C@@H]1C[C@H](SC2=C(C(=O)O)N3C(=O)[C@H]([C@@H](C)NC(=O)C(F)F)[C@H]3[C@H]2C)CN1 [Example 141]
16 to 32 µg/mL (≈ 27.9 to 55.9 µM) | 4 to 8 µg/mL (≈ 6.99 to 14 µM) | 1 µg/mL (≈ 1.75 µM) | 8 µg/mL (≈ 14 µM) | 8 µg/mL (≈ 14 µM) | C[C@@H](NC(=O)C(F)F)[C@H]1C(=O)N2C(C(=O)O)=C(S[C@@H]3CN[C@H](C(=O)N4C[C@@H](N)C[C@H]4C(=O)N(C)C)C3)[C@H](C)[C@H]12 [Example 142]
32 to 64 µg/mL (≈ 65.2 to 130 µM) | 2 µg/mL (≈ 4.08 µM) | 1 µg/mL (≈ 2.04 µM) | 8 µg/mL (≈ 16.3 µM) | 8 µg/mL (≈ 16.3 µM) | C[C@@H](NC(=O)C(F)(F)CO)[C@H]1C(=O)N2C(C(=O)O)=C(S[C@@H]3CN[C@H](C(=O)N(C)C)C3)[C@H](C)[C@H]12 [Example 143]
32 µg/mL (≈ 65.6 µM) | 0.5 µg/mL (≈ 1.03 µM) | 2 µg/mL (≈ 4.1 µM) | 8 µg/mL (≈ 16.4 µM) | 8 to 16 µg/mL (≈ 16.4 to 32.8 µM) | C[C@@H](NC(=O)C(F)F)[C@H]1C(=O)N2C(C(=O)O)=C(S[C@@H]3CN[C@H](CN4CCNCC4)C3)[C@H](C)[C@H]12 [Example 145]
64 to 128 µg/mL (≈ 105 to 210 µM) | 2 µg/mL (≈ 3.29 µM) | 1 µg/mL (≈ 1.64 µM) | 4 to 8 µg/mL (≈ 6.57 to 13.1 µM) | 2 µg/mL (≈ 3.29 µM) | C[C@@H](NC(=O)C(F)F)[C@H]1C(=O)N2C(C(=O)O)=C(S[C@@H]3CN[C@H](C(=O)N4CC[C@H](NC(=O)C(F)(F)CN)C4)C3)[C@H](C)[C@H]12 [Example 147]
32 to 64 µg/mL (≈ 61.8 to 124 µM) | 1 to 2 µg/mL (≈ 1.93 to 3.86 µM) | 0.5 µg/mL (≈ 0.966 µM) | 2 to 4 µg/mL (≈ 3.86 to 7.73 µM) | 1 µg/mL (≈ 1.93 µM) | C[C@@H](NC(=O)C(F)F)[C@H]1C(=O)N2C(C(=O)O)=C(S[C@@H]3CN[C@H](C(=O)N4CC[C@H](ON)C4)C3)[C@H](C)[C@H]12 [Example 148]
4 µg/mL (≈ 7.76 µM) | 2 µg/mL (≈ 3.88 µM) | 1 µg/mL (≈ 1.94 µM) | 8 µg/mL (≈ 15.5 µM) | 8 µg/mL (≈ 15.5 µM) | CN[C@@H]1CCN(C(=O)[C@@H]2C[C@H](SC3=C(C(=O)O)N4C(=O)[C@H]([C@@H](C)NC(=O)C(F)F)[C@H]4[C@H]3C)CN2)C1 [Example 149]
64 µg/mL (≈ 131 µM) | 4 µg/mL (≈ 8.2 µM) | 4 µg/mL (≈ 8.2 µM) | 16 µg/mL (≈ 32.8 µM) | 64 µg/mL (≈ 131 µM) | C[C@@H](NC(=O)C(F)F)[C@H]1C(=O)N2C(C(=O)O)=C(S[C@@H]3CN[C@H](CN4CC[C@H](N)C4)C3)[C@H](C)[C@H]12 [Example 150]
32 µg/mL (≈ 54.4 µM) | 4 µg/mL (≈ 6.8 µM) | 2 µg/mL (≈ 3.4 µM) | 8 µg/mL (≈ 13.6 µM) | 16 µg/mL (≈ 27.2 µM) | CNCC(=O)NO[C@H]1CCN(C(=O)[C@@H]2C[C@H](SC3=C(C(=O)O)N4C(=O)[C@H]([C@@H](C)NC(=O)C(F)F)[C@H]4[C@H]3C)CN2)C1 [Example 151]
64 µg/mL (≈ 115 µM) | 8 µg/mL (≈ 14.3 µM) | 1 µg/mL (≈ 1.79 µM) | 8 µg/mL (≈ 14.3 µM) | 2 µg/mL (≈ 3.58 µM) | C[C@@H](NC(=O)C(F)F)[C@H]1C(=O)N2C(C(=O)O)=C(S[C@@H]3CN[C@H](C(=O)N4CC[C@H](NCC(N)=O)C4)C3)[C@H](C)[C@H]12 [Example 153]
64 µg/mL (≈ 115 µM) | 4 µg/mL (≈ 7.16 µM) | 1 µg/mL (≈ 1.79 µM) | 8 µg/mL (≈ 14.3 µM) | 2 µg/mL (≈ 3.58 µM) | C[C@@H](NC(=O)C(F)F)[C@H]1C(=O)N2C(C(=O)O)=C(S[C@@H]3CN[C@H](C(=O)N4CC[C@@H](NCC(N)=O)C4)C3)[C@H](C)[C@H]12 [Example 154]
32 µg/mL (≈ 55.9 µM) | 2 µg/mL (≈ 3.49 µM) | 1 µg/mL (≈ 1.75 µM) | 8 µg/mL (≈ 14 µM) | 8 µg/mL (≈ 14 µM) | CNCC(=O)N[C@@H]1CCN(C(=O)[C@@H]2C[C@H](SC3=C(C(=O)O)N4C(=O)[C@H]([C@@H](C)NC(=O)C(F)F)[C@H]4[C@H]3C)CN2)C1 [Example 155]
